US6489337B1, “Method for treating histamine H3 receptor-mediated disorders with 2- or 3-aryl substituted imidazo[1,2-a] pyridines” (Ortho-McNeil Pharmaceutical, Inc., priority 2000, dated 2002)
Where a name gives a salt, the structure may show the parent alone.

How the values were obtained:
[1] = molecular target: T1, human histamine H3 receptor (Homo sapiens, UniProt Q9Y5N1); assay: [3H]-N-methylhistamine binding; details: membranes of histamine H3 receptor-expressing SK-N-MC cells; 0.8 nM [3H]-N-methylhistamine; 45 minutes at 25° C.; KI=(IC50)/(1+([L]/(KD)), KD 800 pM
T1 construct: expressed in transfected cells; membranes prepared from cell pellets
Procedure: In the present invention receptor binding was determined using the human histamine H3 receptor (See Lovenberg et al Mol. Pharmacol. 1999, 1107). Screening using the human receptor is particularly important for the identification of new therapies for the treatment of human disease. Conventional binding assays for example are determined using rat synaptosomes (Garbarg et al J. Pharmacol. Exp. Ther. 1992, 263, 304), rat cortical membranes (West et al Mol. Pharmacol. 1990, 610), and guinea pig brain (Korte et al Biochem. Biophys. Res. Commun. 1990, 978). Only limited studies have been performed previously using human tissue but these allude to significant differences in the pharmacology of rodent and primate receptors (West et al Eur. J. Pharmacol. 1999, 233).
A 10 cm tissue culture dish with a confluent monolayer of SK-N-MC cells was split two days prior to transfection. Using sterile technique the media was removed and the cells were detached from the dish by the addition of trypsin. One fifth of the cells were then placed onto a new 10 cm dish. Cells were grown in a 37° C. incubator with 5% CO2 in Minimal Essential Media Eagle with 10% Fetal Bovine Serum. After two days cells were approximately 80% confluent. These were removed from the dish with trypsin and pelleted in a clinical centrifuge. The pellet was then re-suspended in 400 μL complete media and transferred to an electroporation cuvette with a 0.4 cm gap between the electrodes (Bio-Rad #165-2088). One microgram supercoiled H3 receptor cDNA was added to the cells and mixed. The voltage for the electroporation was set at 0.25 kV, the capacitance is set at 960 μF.
After electroporation the cells were diluted into 10 mL complete media and plated onto four 10 cm dishes. Due to the variability in the efficiency of electroporation, four different concentrations of cells were plated. The ratios used were: 1:20, 1:10, and 1:5, with the remainder of the cells being added to the fourth dish. The cells were allowed to recover for 24 hours before adding the selection media (complete media with 600 μg/ml G418). After 10 days dishes were analyzed for surviving colonies of cells. Dishes with well-isolated colonies were used. Cells from individual colonies were isolated and tested. SK-N-MC cells were used because they give efficient coupling for inhibition of adenylate cyclase. The clones that gave the most robust inhibition of adenylate cyclase in response to histamine were used for further study.
1(B) [^3H]-N-methylhistamine Binding
Cell pellets from histamine H3 receptor-expressing SK-N-MC cells were homogenized in 20 mM TrisHCl/0.5 mM EDTA. Supernatants from a 800 g spin were collected, recentrifuged at 30,000 g for 30 minutes. Pellets were rehomogenized in 50 mM Tris/5 mM EDTA (pH 7.4). Membranes were incubated with 0.8 nM [^3H]-N-methylhistamine plus/minus test compounds for 45 minutes at 25° C. and harvested by rapid filtration over GF/C glass fiber filters (pretreated with 0.3% polyethylenimine) followed by four washes with ice cold buffer. Filters were dried, added to 4 mL scintillation cocktail and then counted on a liquid scintillation counter. Non-specific binding was defined with 10 μM histamine according to Chen and Prusoff, Biochem. Pharmacol. 1973, 22:3099. KI values were calculated based on a KD of 800 pM and a ligand concentration ([L]) of 800 pM according to the formula: KI=(IC50)/(1+([L]/(KD)). KI values are provided in the examples above.

T1 sequence (Q9Y5N1 whole entry): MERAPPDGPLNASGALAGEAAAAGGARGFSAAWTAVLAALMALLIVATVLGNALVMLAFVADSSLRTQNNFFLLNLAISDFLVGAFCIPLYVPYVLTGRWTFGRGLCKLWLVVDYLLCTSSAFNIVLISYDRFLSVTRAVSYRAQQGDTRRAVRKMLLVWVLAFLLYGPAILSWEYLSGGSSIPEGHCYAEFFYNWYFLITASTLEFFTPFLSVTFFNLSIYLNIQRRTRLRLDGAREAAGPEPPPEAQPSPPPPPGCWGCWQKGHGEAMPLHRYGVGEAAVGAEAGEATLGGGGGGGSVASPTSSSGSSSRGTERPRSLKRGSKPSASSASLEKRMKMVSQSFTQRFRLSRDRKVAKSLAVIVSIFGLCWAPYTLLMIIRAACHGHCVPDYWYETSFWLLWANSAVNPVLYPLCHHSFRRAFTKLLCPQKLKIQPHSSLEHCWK

| melting point [°C] | Ki [1] [nM] | SMILES |
| --- | --- | --- |
| 179 to 183 | – | CCCCN(CCCC)CCCOc1ccc(-c2cn3ccccc3n2)cc1 (as salt: HCl) [Example 1, 2-(4-Dibutylaminopropoxyphenyl)imidazo[1,2-a]pyridine] |
| 214 to 217 | – | CCCCN(CCCC)CCCOc1ccc(-c2cn3cccc(C)c3n2)cc1 (as salt: HCl) [Example 2, 2-[4-[3-(Dibutylamino)propoxy]phenyl)-8-methylimidazo[1,2-a]pyridine] |
| 202 to 204 | – | CCCCN(CCCC)CCCOc1ccc(-c2nc3c(C)cccn3c2C)cc1 (as salt: HCl) [Example 4, 2-(4-Dibutylaminopropoxyphenyl)-3,8-dimethylimidazo[1,2-a]pyridine] |
| 159 to 161 | – | CCCCN(CCCC)CCCOc1ccc(C(=O)c2cn3cccc(C)c3n2)cc1 (as salt: HCl) [Example 5, 2-(4-Dibutylaminopropoxybenzoyl)-8-methylimidazo[1,2-a]pyridine] |
| – | 500 | CCCCN(CCCC)CCCOc1ccc(-c2cn3cccc(C)c3n2)cc1 [Example 2, 2-[4-[3-(Dibutylamino)propoxy]phenyl)-8-methylimidazo[1,2-a]pyridine] |
| – | 70 | CCCCN(CCCC)CCCOc1ccc(C(=O)c2cn3ccc(C)cc3n2)cc1 [Example 3, [4-(3-dibutylamino-propoxy)-phenyl]-(7-methyl-imidazo[1,2-a]pyridin-2-yl)-methanone] |
| – | 327 | CCCCN(CCCC)CCCOc1ccc(-c2nc3c(C)cccn3c2C)cc1 [Example 4, 2-(4-Dibutylaminopropoxyphenyl)-3,8-dimethylimidazo[1,2-a]pyridine] |
| – | 500 | CCCCN(CCCC)CCCOc1ccc(C(=O)c2cn3cccc(C)c3n2)cc1 [Example 5, 2-(4-Dibutylaminopropoxybenzoyl)-8-methylimidazo[1,2-a]pyridine] |
| – | 44 | CCCN(CCC)CCCOc1ccc(-c2cn3cccc(C)c3n2)cc1 [Example 7, 2-(4-Dipropylaminopropoxyphenyl)-8-methylimidazo[1,2-a]pyridine] |
| – | 14 | Cc1cccn2cc(-c3ccc(OCCCN(C)C)cc3)nc12 [Example 8, 2-(4-Dimethylaminopropoxyphenyl)-8-methylimidazo[1,2-a]pyridine] |
| – | 119 | CN(C)CCCOc1ccc(-c2cn3ccccc3n2)cc1 [Example 9, 2-(4-Dimethylaminopropoxyphenyl)imidazo[1,2-a]pyridine] |
| – | 15 | CCN(CC)CCOc1ccc(-c2cn3cccc(C)c3n2)cc1 [Example 10, 2-(4-Diethylaminoethoxyphenyl)-8-methylimidazo[1,2-a]pyridine] |
| – | 55 | Cc1cccn2cc(-c3ccc(OCCN(C(C)C)C(C)C)cc3)nc12 [Example 11, 2-(4-Diisopropylaminoethoxyphenyl)-8-methylimidazo[1,2-a]pyridine] |
| – | 500 | CCCCCN(CCCCC)CCCOc1ccc(-c2cn3cccc(C)c3n2)cc1 [Example 13, 2-(4-Dipentylaminopropoxyphenyl)-8-methylimidazo[1,2-a]pyridine] |
| – | 14 | CCCN(CCC)CCCOc1ccc(-c2cn3cccc(C)c3n2)cc1C [Example 14, 2-(4-Dipropylaminopropoxy-(3-methyl)-phenyl)-8-methylimidazo[1,2-a]pyridine] |
